From the NIST ThermoML archive (doi:10.1016/j.jct.2016.03.026)

Assay: xn = mol fraction of the nth substance listed
Settings: 293.15 K, Fluid (supercritical or subcritical phases), Vibrating tube method, x1 = 0.97

O=C=O [carbon dioxide] + CO
Settings	mass density [kg/m3]
8600 kPa	847.4
8625 kPa	847.69
8650 kPa	848.04
8675 kPa	848.37
8700 kPa	848.68
8725 kPa	849.03
8750 kPa	849.37
8775 kPa	849.67
8800 kPa	849.99
8825 kPa	850.29
8850 kPa	850.6
8875 kPa	850.92
8900 kPa	851.22
8925 kPa	851.5
8950 kPa	851.81
8975 kPa	852.08
9000 kPa	852.41
9025 kPa	852.71
9050 kPa	852.98
9075 kPa	853.28
9100 kPa	853.57
9125 kPa	853.85
9150 kPa	854.08
9175 kPa	854.24
9200 kPa	854.32
9225 kPa	854.58
9250 kPa	854.9
9275 kPa	855.22
9300 kPa	855.55
9325 kPa	855.89
9350 kPa	856.22
9375 kPa	856.46
9400 kPa	856.82
9425 kPa	857.09
9450 kPa	857.44
9475 kPa	857.69
9500 kPa	858.02
9525 kPa	858.28
9550 kPa	858.59
9575 kPa	858.84
9600 kPa	859.17
9625 kPa	859.48
9650 kPa	859.74
9675 kPa	860.01
9700 kPa	860.28
9725 kPa	860.54
9750 kPa	860.76
9775 kPa	860.99
9800 kPa	861.24
9825 kPa	861.54
9850 kPa	861.78
9875 kPa	862
9900 kPa	862.27
9925 kPa	862.54
9950 kPa	862.76
9975 kPa	863.01
10000 kPa	863.3
10025 kPa	863.5
10050 kPa	863.76
10075 kPa	864
10100 kPa	864.22
10125 kPa	864.49
10150 kPa	864.74
10175 kPa	865.06
10200 kPa	865.34
10225 kPa	865.63
10250 kPa	865.87
10275 kPa	866.12
10300 kPa	866.45
10325 kPa	866.67
10350 kPa	866.94
10375 kPa	867.18
10400 kPa	867.43
10425 kPa	867.68
10450 kPa	867.99
10475 kPa	868.24
10500 kPa	868.43
10525 kPa	868.74
10550 kPa	868.99
10575 kPa	869.23
10600 kPa	869.48
10625 kPa	869.76
10650 kPa	869.97
10675 kPa	870.3
10700 kPa	870.54
10725 kPa	870.79
10750 kPa	871.03
10775 kPa	871.28
10800 kPa	871.52
10825 kPa	871.77
10850 kPa	872.01
10875 kPa	872.27
10900 kPa	872.51
10925 kPa	872.75
10950 kPa	873
10975 kPa	873.24
11000 kPa	873.49
11025 kPa	873.73
11050 kPa	873.98
11075 kPa	874.22
11100 kPa	874.47
11125 kPa	874.72
11150 kPa	874.96
11175 kPa	875.21
11200 kPa	875.45
11225 kPa	875.7
11250 kPa	875.94
11275 kPa	876.2
11300 kPa	876.43
11325 kPa	876.68
11350 kPa	876.93
11375 kPa	877.16
11400 kPa	877.38
11425 kPa	877.58
11450 kPa	877.85
11475 kPa	878.07
11500 kPa	878.33
11525 kPa	878.56
11550 kPa	878.81
11575 kPa	879
11600 kPa	879.3
11625 kPa	879.46
11650 kPa	879.71
11675 kPa	879.95
11700 kPa	880.2
11725 kPa	880.38
11750 kPa	880.63
11775 kPa	880.86
11800 kPa	881.1
11825 kPa	881.34
11850 kPa	881.54
11875 kPa	881.77
11900 kPa	882
11925 kPa	882.25
11950 kPa	882.46
11975 kPa	882.66
12000 kPa	882.9
12025 kPa	883.12
12050 kPa	883.38
12075 kPa	883.57
12100 kPa	883.79
12125 kPa	884.05
12150 kPa	884.26
12175 kPa	884.46
12200 kPa	884.7
12225 kPa	884.95
12250 kPa	885.18
12275 kPa	885.36
12300 kPa	885.6
12325 kPa	885.85
12350 kPa	886.09
12375 kPa	886.26
12400 kPa	886.49
12425 kPa	886.67
12450 kPa	886.91
12475 kPa	887.16
12500 kPa	887.33
12525 kPa	887.57
12550 kPa	887.8
12575 kPa	887.98
12600 kPa	888.22
12625 kPa	888.41
12650 kPa	888.63
12675 kPa	888.88
12700 kPa	889.11
12725 kPa	889.29
12750 kPa	889.53
12775 kPa	889.77
12800 kPa	889.94
12825 kPa	890.19
12850 kPa	890.37
12875 kPa	890.6
12900 kPa	890.84
12925 kPa	891.01
12950 kPa	891.25
12975 kPa	891.46
13000 kPa	891.66
13025 kPa	891.9
13050 kPa	892.08
13075 kPa	892.32
13100 kPa	892.5
13125 kPa	892.74
13150 kPa	892.96
13175 kPa	893.13
13200 kPa	893.3
13225 kPa	893.53
13250 kPa	893.74
13275 kPa	893.95
13300 kPa	894.19
13325 kPa	894.36
13350 kPa	894.53
13375 kPa	894.75
13400 kPa	894.97
13425 kPa	895.18
13450 kPa	895.34
13475 kPa	895.52
13500 kPa	895.75
13525 kPa	895.96
13550 kPa	896.13
13575 kPa	896.33
13600 kPa	896.51
13625 kPa	896.67
13650 kPa	896.86
13675 kPa	897.09
13700 kPa	897.29
13725 kPa	897.47
13750 kPa	897.68
13775 kPa	897.85
13800 kPa	898.05
13825 kPa	898.26
13850 kPa	898.41
13875 kPa	898.62
13900 kPa	898.8
13925 kPa	898.97
13950 kPa	899.2
13975 kPa	899.38
14000 kPa	899.55
14025 kPa	899.76
14050 kPa	899.94
14075 kPa	900.17
14100 kPa	900.34
14125 kPa	900.51
14150 kPa	900.7
14175 kPa	900.95
14200 kPa	901.13
14225 kPa	901.31
14250 kPa	901.48
14275 kPa	901.66
14300 kPa	901.83
14325 kPa	902.05
14350 kPa	902.18
14375 kPa	902.38
14400 kPa	902.56
14425 kPa	902.77
14450 kPa	902.92
14475 kPa	903.13
14500 kPa	903.28
14525 kPa	903.44
14550 kPa	903.67
14575 kPa	903.82
14600 kPa	904.05
14625 kPa	904.2
14650 kPa	904.42
14675 kPa	904.58
